Reference: ChEMBL document CHEMBL5665443, “Enzyme Inhibitor Single Concentration assay results for EUbOPEN Chemogenomics Library” (2024)

What was measured:
[1] = target: Methyl-CpG-binding domain protein 4 (Homo sapiens) (UniProt O95243); conditions: Hit No;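 note: MBD4 activity read as fluorescence at 594 nm from cleavage and release of a quenched duplex DNA oligonucleotide, with APE1 coupled to incise the strand and raise turnover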
Description: Inhibition of MBD4 by quantifying inhibition of MBD4-mediated cleavage and dissociation of quenched duplex DNA oligonucleotides, measured as fluorescence at 594 nm. To generate a functional strand incision and increase turn-over this assay is coupled to APE1.

[2] = target: Endonuclease 8-like 1 (Homo sapiens) (UniProt Q96FI4); conditions: Hit No;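 note: fluorescence at 594 nm from quenched duplex DNA oligonucleotides released by NEIL1 cleavage and strand separation, reported as reduction of this enzyme activity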
Chain of Endonuclease 8-like 1 (Homo sapiens) (Q96FI4 whole entry): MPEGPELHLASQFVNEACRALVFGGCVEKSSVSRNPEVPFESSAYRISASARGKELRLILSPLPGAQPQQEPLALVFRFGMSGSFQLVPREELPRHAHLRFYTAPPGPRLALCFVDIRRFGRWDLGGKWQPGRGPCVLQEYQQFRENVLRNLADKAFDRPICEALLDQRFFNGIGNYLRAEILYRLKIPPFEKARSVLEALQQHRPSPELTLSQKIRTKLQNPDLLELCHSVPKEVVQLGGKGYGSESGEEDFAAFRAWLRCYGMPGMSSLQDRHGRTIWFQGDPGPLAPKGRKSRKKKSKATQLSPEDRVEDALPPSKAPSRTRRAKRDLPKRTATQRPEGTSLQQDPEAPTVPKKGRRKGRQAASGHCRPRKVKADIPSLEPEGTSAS
Description: Inhibition of NEIL1 by quantifying inhibition of NEIL1-mediated cleavage and dissociation of quenched duplex DNA oligonucleotides, measured as fluorescence at 594 nm.

[3] = target: T1, Endonuclease III-like protein 1 (Homo sapiens) (UniProt P78549); conditions: Hit No;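 note: enzyme assay tracking NTHL1 cutting and release of a quenched double-stranded DNA oligo substrate, read as fluorescence at 594 nm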
T1 sequence (whole entry): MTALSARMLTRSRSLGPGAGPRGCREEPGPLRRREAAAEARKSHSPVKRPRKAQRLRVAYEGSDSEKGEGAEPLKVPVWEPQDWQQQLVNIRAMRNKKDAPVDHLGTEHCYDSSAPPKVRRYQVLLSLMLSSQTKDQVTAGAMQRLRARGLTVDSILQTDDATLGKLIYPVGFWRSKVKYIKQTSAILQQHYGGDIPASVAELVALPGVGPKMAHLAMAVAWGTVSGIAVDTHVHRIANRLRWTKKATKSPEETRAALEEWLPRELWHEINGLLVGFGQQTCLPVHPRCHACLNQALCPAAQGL
Description: Inhibition of NTHL1 by quantifying inhibition of NTHL1-mediated cleavage and dissociation of quenched duplex DNA oligonucleotides, measured as fluorescence at 594 nm.

[4] = target: N-glycosylase/DNA lyase (Homo sapiens) (UniProt O15527); conditions: Hit No;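 note: OGG1 cleavage of a quenched duplex DNA oligonucleotide, coupled to APE1 for strand incision, read as fluorescence at 594 nm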
Chain of N-glycosylase/DNA lyase (Homo sapiens) (O15527 whole entry): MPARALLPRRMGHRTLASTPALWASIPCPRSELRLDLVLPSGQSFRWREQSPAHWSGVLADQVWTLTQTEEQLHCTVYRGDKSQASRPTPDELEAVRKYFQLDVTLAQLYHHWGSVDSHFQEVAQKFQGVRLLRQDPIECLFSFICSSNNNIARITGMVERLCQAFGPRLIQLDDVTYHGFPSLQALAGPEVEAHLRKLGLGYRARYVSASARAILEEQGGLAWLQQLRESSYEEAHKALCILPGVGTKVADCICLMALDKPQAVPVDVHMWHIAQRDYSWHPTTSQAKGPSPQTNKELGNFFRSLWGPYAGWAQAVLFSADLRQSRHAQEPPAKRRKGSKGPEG
Description: Inhibition of OGG1 by quantifying inhibition of OGG1-mediated cleavage and dissociation of quenched duplex DNA oligonucleotides, measured as fluorescence at 594 nm. To generate a functional strand incision and increase turn-over this assay is coupled to APE1.

[5] = target: T2, Single-strand selective monofunctional uracil DNA glycosylase (Homo sapiens) (UniProt Q53HV7); conditions: Hit No;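 note: enzymatic SMUG1 assay coupled with APE1, reading fluorescence at 594 nm released when a quenched double-stranded DNA oligonucleotide substrate is cleaved and separated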
T2 sequence (whole entry): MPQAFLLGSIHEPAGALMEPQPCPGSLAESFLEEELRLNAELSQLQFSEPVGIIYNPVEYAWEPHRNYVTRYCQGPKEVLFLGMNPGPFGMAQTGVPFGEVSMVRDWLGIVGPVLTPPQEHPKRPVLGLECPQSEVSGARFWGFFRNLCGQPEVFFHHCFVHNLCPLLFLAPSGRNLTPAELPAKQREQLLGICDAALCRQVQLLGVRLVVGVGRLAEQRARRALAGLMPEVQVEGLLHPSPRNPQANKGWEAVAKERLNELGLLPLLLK
Description: Inhibition of SMUG1 by quantifying inhibition of SMUG1-mediated cleavage and dissociation of quenched duplex DNA oligonucleotides, measured as fluorescence at 594 nm. To generate a functional strand incision and increase turn-over this assay is coupled to APE1.

[6] = target: G/T mismatch-specific thymine DNA glycosylase (Homo sapiens) (UniProt Q13569); conditions: Hit No;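 note: human TDG cleavage of quenched duplex DNA oligonucleotides coupled to APE1, strand release read as fluorescence at 594 nm, inhibition of TDG activity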
Chain of G/T mismatch-specific thymine DNA glycosylase (Homo sapiens) (Q13569 whole entry): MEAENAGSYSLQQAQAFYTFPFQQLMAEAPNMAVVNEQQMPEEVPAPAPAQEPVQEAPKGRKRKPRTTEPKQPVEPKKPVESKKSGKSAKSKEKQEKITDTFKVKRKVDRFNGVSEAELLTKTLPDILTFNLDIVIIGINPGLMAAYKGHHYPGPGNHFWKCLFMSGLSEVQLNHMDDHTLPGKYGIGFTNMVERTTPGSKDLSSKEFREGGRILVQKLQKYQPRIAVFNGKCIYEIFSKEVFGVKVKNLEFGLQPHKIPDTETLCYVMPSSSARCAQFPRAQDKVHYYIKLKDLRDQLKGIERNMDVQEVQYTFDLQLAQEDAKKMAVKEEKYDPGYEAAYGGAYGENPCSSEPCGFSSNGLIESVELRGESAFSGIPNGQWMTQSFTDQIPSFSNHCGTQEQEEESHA
Description: Inhibition of TDG by quantifying inhibition of TDG-mediated cleavage and dissociation of quenched duplex DNA oligonucleotides, measured as fluorescence at 594 nm. To generate a functional strand incision and increase turn-over this assay is coupled to APE1.

[7] = target: Uracil-DNA glycosylase (Homo sapiens) (UniProt P13051); conditions: Hit No;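 note: UNG excision on a quenched double-stranded DNA oligo probe, with APE1 added for strand incision and turnover, read as fluorescence at 594 nm as strands separate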
Chain of Uracil-DNA glycosylase (Homo sapiens) (P13051 whole entry): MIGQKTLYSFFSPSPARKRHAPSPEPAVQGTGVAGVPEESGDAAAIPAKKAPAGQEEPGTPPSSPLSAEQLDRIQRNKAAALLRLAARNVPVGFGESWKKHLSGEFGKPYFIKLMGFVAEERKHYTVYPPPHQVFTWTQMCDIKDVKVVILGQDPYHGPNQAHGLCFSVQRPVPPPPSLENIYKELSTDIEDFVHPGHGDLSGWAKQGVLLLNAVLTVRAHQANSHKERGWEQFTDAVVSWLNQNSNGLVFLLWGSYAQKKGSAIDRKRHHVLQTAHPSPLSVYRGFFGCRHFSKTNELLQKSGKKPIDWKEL
Description: Inhibition of UNG by quantifying inhibition of UNG-mediated cleavage and dissociation of quenched duplex DNA oligonucleotides, measured as fluorescence at 594 nm. To generate a functional strand incision and increase turn-over this assay is coupled to APE1.

[8] = target: T3, Endonuclease 8-like 2 (Homo sapiens) (UniProt Q969S2); conditions: Compound Concentration 10.0 uM, Hit No;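 note: fluorescence at 594 nm reports NEIL2 cutting and release of a quenched double-stranded DNA oligo substrate, reduced signal read as inhibition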
T3 sequence (whole entry): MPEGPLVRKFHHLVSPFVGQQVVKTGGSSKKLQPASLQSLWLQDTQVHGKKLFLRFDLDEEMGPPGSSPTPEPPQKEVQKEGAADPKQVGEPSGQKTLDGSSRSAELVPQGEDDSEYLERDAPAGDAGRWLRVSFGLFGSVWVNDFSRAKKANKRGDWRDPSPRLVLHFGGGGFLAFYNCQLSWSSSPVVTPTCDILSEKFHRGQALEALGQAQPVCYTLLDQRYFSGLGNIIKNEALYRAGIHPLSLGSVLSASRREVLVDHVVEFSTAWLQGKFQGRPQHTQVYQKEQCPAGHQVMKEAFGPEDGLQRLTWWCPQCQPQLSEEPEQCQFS
Description: Inhibition of NEIL2 by quantifying inhibition of NEIL2-mediated cleavage and dissociation of quenched duplex DNA oligonucleotides, measured as fluorescence at 594 nm.

Chain of Methyl-CpG-binding domain protein 4 (Homo sapiens) (O95243 whole entry, the tested form may be a part): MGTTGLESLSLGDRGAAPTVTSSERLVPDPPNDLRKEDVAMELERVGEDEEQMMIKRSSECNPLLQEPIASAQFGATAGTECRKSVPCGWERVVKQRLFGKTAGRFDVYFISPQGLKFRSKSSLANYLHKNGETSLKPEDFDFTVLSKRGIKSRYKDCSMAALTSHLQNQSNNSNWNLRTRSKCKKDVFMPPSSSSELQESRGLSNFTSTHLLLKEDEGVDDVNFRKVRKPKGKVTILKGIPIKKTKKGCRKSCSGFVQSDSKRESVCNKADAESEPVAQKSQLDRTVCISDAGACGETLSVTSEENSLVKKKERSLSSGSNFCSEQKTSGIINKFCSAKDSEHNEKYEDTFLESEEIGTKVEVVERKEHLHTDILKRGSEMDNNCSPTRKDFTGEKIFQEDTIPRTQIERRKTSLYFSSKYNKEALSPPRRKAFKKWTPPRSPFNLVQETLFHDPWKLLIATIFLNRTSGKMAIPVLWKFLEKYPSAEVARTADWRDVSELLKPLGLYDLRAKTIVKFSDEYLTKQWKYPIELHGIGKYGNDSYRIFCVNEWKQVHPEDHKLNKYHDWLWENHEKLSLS

Structure (SMILES) | inhibition ([1]; Compound Concentration 1.0 uM) | inhibition ([2]; Compound Concentration 1.0 uM) | inhibition ([3]; Compound Concentration 1.0 uM) | inhibition ([4]; Compound Concentration 1.0 uM) | inhibition ([5]; Compound Concentration 1.0 uM) | inhibition ([6]; Compound Concentration 1.0 uM) | inhibition ([7]; Compound Concentration 1.0 uM) | inhibition ([1]; Compound Concentration 10.0 uM) | inhibition ([2]; Compound Concentration 10.0 uM) | inhibition [8] | inhibition ([3]; Compound Concentration 10.0 uM) | inhibition ([5]; Compound Concentration 10.0 uM) | inhibition ([6]; Compound Concentration 10.0 uM) | inhibition ([7]; Compound Concentration 10.0 uM) | inhibition ([4]; Compound Concentration 10.0 uM)
Cc1n[nH]c2ncc(C(=O)N3CCC[C@H]3c3ccc(Cl)cc3)cc12 | 9.29% | -3.69% | 7.06% | -6.69% | 8.72% | 31.7% | -1.69% | – | – | – | – | – | – | – | –
Cc1cnc(Nc2ccc(F)cc2Cl)nc1-c1c[nH]c(C(=O)N[C@H](CO)c2cccc(Cl)c2)c1 | -4.19% | -0.127% | -6.19% | -8.42% | 23.9% | 46.4% | 2.73% | – | – | – | – | – | – | – | –
CC1=C(C(=O)Nc2cc3cn[nH]c3cc2F)C(c2ccc(C(F)(F)F)cc2)CC(=O)N1 (stereo unspecified) | – | – | – | – | – | – | – | 18% | 4.1% | 3.2% | -2.7% | 22.4% | 34.3% | 7.25% | –
CCc1cc(Nc2nccc(-c3c(-c4ccc(OC)c(C(=O)Nc5c(F)cccc5F)c4)nc4ccccn34)n2)c(OC)cc1N1CCC(N2CCN(S(C)(=O)=O)CC2)CC1 | 32.9% | -8.84% | -1.31% | 10.7% | 21.4% | 50.7% | 0.56% | – | – | – | – | – | – | – | –
CC(C)c1c(NC(=O)Nc2ccc(Cl)cc2)c(=O)n(-c2ccccc2)n1C | – | – | – | – | – | – | – | 31.2% | 4.99% | -6.97% | 12.9% | -6.14% | -4.69% | – | -7%
CN(C)C(=O)c1sc2nc(N3CCC(S(C)(=O)=O)CC3)cc(C(F)(F)F)c2c1N | – | – | – | – | – | – | – | 1.76% | -3.24% | – | 2.05% | -2.07% | -5.21% | – | -1.24%
C[C@@H]1CN(c2nccc(Nc3ccc4c(c3)n(CCC(C)(C)O)c(=O)n4C)n2)C[C@H](C)C1(F)F | – | – | – | – | – | – | – | 56.2% | -3.77% | -8.14% | -0.63% | 7.55% | 98.6% | 5.07% | –
COc1cc(C(=O)O)ncc1C#Cc1ccccc1NS(=O)(=O)c1cccc2c(N(C)C)ccnc12 | – | – | – | – | – | – | – | 66.6% | -0.29% | 6.91% | -8.52% | 6.29% | 46.3% | 2.52% | –
N#CC1(c2ccccn2)CCN(Cc2cc(C(=O)O)c(=O)n3ccccc23)CC1 | – | – | – | – | – | – | – | 93% | -0.139% | 0.531% | -9.18% | – | 45.8% | 1.66% | -3.75%
Cn1ncnc1COc1nn2c(-c3c(F)cccc3F)nnc2cc1C1CCC1 | – | – | – | – | – | – | – | -5.71% | 7.71% | -3.41% | 22.9% | 1.23% | 15.4% | -7.24% | –
CO[C@@H](C)c1c(Nc2ccc([C@@H](N(C)C(=O)C3CCS(=O)(=O)CC3)C(F)(F)F)cc2)cnc2cc(Cl)nn12 | – | – | – | – | – | – | – | 93.9% | -6.35% | 0.0213% | -9.83% | 13.4% | 42.7% | 0.795% | –
Cc1cc2c(-c3ccco3)cnc(N[C@@H]3CCN(C)C[C@H]3C(=O)NC3CCCCC3)c2[nH]c1=O | – | – | – | – | – | – | – | 58.5% | – | – | -9.18% | – | 33.3% | -3.36% | –
COc1ccc(CC[C@@H](OC(=O)[C@@H]2CCCCN2C(=O)[C@H](c2cc(OC)c(OC)c(OC)c2)C2CCCCC2)c2cccc(OCCN3CCOCC3)c2)cc1OC | – | – | – | – | – | – | – | 43.3% | – | – | -7.86% | 4.21% | 31.2% | 0.833% | -4.59%
